Test results reported in US20220054532A1, “VETERINARY COMPOSITIONS AND METHODS OF USE THEREFOR” (priority 2019, published 2022).

Tests used:
[1] = tested on: dogs suffering from GI-specific inflammation; assay: Example 3: GI-specific inflammation, owner-rated symptom reduction (canine); assay type: in vivo; settings: symptom reduction score 0 (no reduction) to 4 (resolution of symptoms); for Final Score: after 28 days BID
Text: This example examines the ability of embodiments of the invention versus Pepcid® to treat unwanted GI-specific inflammation characterized by gastritis, reflux, vomiting, diarrhea, and inappetence.
The first patient group is twenty dogs suffering from GI-specific inflammation. The second patient group is twenty cats suffering from GI-specific inflammation. Each patient group is broken into five groups of four animals. The first groups receive Pepcid® as the sole active agent; the second groups receive a composition comprising HMW HA as the sole active agent; the third groups receive a composition comprising CBD as the sole active agent; the fourth groups receive a composition comprising HMW HA and CBD as the active agents; and the fifth groups receive a composition comprising HMW HA, CBD, and glutathione as the active agents.
Each composition is administered for a period of twenty-eight (28) days, BID. The owner observes potential reduction of symptoms at the end of treatment and rates the reduction as no reduction (score of 0), mild reduction (score of 1), moderate reduction (score of 2), significant reduction (score of 3), or resolution of symptoms (score of 4).
The following canine scores are observed and the results depicted in FIG. 3a: […]

[2] = tested on: dogs with a history of severe, chronic skin issues, atopy, pruritis, yeast overgrowth, and/or infection; assay: Example 8: skin conditions (itch score) and side effects in dogs; assay type: in vivo; parameters: Average Side Effect Score: scale not given here; settings: for Average Side Effect Score: dogs with skin conditions, 60 days BID; for Initial Itch Score / Final Itch Score: itch scale 0 (no itching) to 10 (extremely severe); for Initial Itch Score: day 0; for Final Itch Score: day 60, BID
Text: This example examines the ability of embodiments of the invention versus prednisone to treat skin conditions.
The patient group is twenty-four dogs with a history of severe, chronic skin issues, atopy, pruritis, yeast overgrowth, and/or infection, as diagnosed by their referring veterinarian. The patient group is broken into six groups of four animals. The first group receives prednisone as the sole active agent; the second group receives a composition comprising prednisone and HMW HA as the active agents; the third group receives a composition comprising HMW HA as the sole active agent; the fourth group receives a composition comprising CBD as the sole active agent; the fifth group receives a composition comprising HMW HA and CBD as the active agents; and the sixth group receives a composition comprising HMW HA, CBD, quercetin, and nettles as the active agents.
Each composition is administered for a period of sixty (60) days, BID. Each dog is evaluated on days 0 (“Initial Score”), 20, 40, and 60 (“Final Score”) of treatment. The results are averaged and characterized on a scale of 0 (no itching—normal dog), 2 (very mild itching—only occasional episodes), 4 (mild itching), 6 (moderate itching—regular episodes), 8 (severe itching—prolonged episodes), to 10 (extremely severe itching—almost continuous).
The following scores are observed and the results depicted in FIG. 8: […]

## C=C(C)[C@@H]1CCC(C)=C[C@H]1c1c(O)cc(CCCCC)cc1O [CBD Alone, 2-[(1R,6R)-3-methyl-6-prop-1-en-2-ylcyclohex-2-en-1-yl]-5-pentylbenzene-1,3-diol]
[1]
  Final Score: 2
  Initial Score: 0
[2]
  Average Side Effect Score: .5
  Initial Itch Score: 9
  Final Itch Score: 5

## hyaluronic acid [HMW HA Alone]
[1]
  Final Score: 3
  Initial Score: 0
[2]
  Average Side Effect Score: 4
  Initial Itch Score: 9
  Final Itch Score: 7
